Laboratory results published in US10253030B2, “Crystal form, preparation method and intermediate of dihydropyrido ring compound” (QILU PHARMACEUTICAL CO., LTD., priority 2015, dated 2019).

Columns and labels:
HBV = experiment: qPCR assay for HBV in vitro test (HBV DNA content in HepG2.2.15 cells); format: cell-based
Procedure: qPCR Assay for HBV In Vitro Test
The HBV DNA content in HepG2.2.15 cells was detected by real-time qPCR assay, and the EC50 values of the compounds were used as indicators to evaluate the inhibitory effect of the compounds on HBV.
2.1 Cell Line: HepG2.2.15 Cells
3.1 HepG2.2.15 cells (4×10^4 cells/well) were seeded in a 96-well plate and incubated at 37° C. under 5% CO 2 overnight.
3.2 On the second day, the compound was diluted into a total of 8 concentrations with 3-fold gradient dilution. Different concentrations of the compound were added to the culture wells, in duplicate. The final concentration of DMSO in the culture medium was 1%. 1 μM GLS4 was used as 100% inhibition control; 1% DMSO was used as 0% inhibition control.
3.3 On the fifth day, the fresh culture medium containing the compound was replaced.
3.4 On the eighth day, the culture medium in the culture wells was collected and DNA was extracted using a high-throughput DNA purification kit (Qiagen-51162). Refer to the product manual for the specific procedure.
3.1 15 μl of reaction mixture was added to each well of a 96-well PCR plate, then 10 μl of sample DNA or standard of HBV DNA to each well.
3.2 PCR reaction conditions: heating at 95° C. for 10 minutes; then denaturing at 95° C. for 15 seconds, extension at 60° C. for 1 minute, a total of 40 cycles. […]

Hepatitis B virus = conditions: prior art, Science, 299 (2003), 893-896; cited from earlier work

| Structure (SMILES) | EC50 (HBV; Hepatitis B virus, 192 h, HBV DNA in culture medium by real-time qPCR, day 8, read-out: Concentration for 50% of inhibition (EC50) value on HBV) | inhibitory effect on HBV DNA (HBV; qPCR, conclusion in words) | IC50 (Hepatitis B virus) |
| --- | --- | --- | --- |
| COC(=O)C1=C2C[C@H](NS(N)(=O)=O)CN2C(c2nccs2)=N[C@H]1c1ccc(F)c(F)c1F [Compound 1] | ≤ 100 nM | significant inhibitory effect on HBV DNA |  |
| Nc1ccn([C@@H]2CS[C@H](CO)O2)c(=O)n1 [Iamivudine] |  |  | 300 nM |
